Reference: ChEMBL document CHEMBL5678818, “Discovery of potent SOS1 inhibitors that block RAS activation via disruption of the RAS-SOS1 interaction” (Proc Natl Acad Sci U S A, 2019)

Assays:
[1] = biological target: Serine/threonine-protein kinase 32C (Homo sapiens) (UniProt Q86UX6); assay: Inhibition of YANK3 (unknown origin) assessed as residual activity at 100 nM by KINOMEscan analysis relative to control
[2] = biological target: T1, Serine/threonine-protein kinase BRSK2 (Homo sapiens) (UniProt Q8IWQ3); assay: Inhibition of BRSK2 (unknown origin) assessed as residual activity at 100 nM by KINOMEscan analysis relative to control
T1 sequence (whole entry): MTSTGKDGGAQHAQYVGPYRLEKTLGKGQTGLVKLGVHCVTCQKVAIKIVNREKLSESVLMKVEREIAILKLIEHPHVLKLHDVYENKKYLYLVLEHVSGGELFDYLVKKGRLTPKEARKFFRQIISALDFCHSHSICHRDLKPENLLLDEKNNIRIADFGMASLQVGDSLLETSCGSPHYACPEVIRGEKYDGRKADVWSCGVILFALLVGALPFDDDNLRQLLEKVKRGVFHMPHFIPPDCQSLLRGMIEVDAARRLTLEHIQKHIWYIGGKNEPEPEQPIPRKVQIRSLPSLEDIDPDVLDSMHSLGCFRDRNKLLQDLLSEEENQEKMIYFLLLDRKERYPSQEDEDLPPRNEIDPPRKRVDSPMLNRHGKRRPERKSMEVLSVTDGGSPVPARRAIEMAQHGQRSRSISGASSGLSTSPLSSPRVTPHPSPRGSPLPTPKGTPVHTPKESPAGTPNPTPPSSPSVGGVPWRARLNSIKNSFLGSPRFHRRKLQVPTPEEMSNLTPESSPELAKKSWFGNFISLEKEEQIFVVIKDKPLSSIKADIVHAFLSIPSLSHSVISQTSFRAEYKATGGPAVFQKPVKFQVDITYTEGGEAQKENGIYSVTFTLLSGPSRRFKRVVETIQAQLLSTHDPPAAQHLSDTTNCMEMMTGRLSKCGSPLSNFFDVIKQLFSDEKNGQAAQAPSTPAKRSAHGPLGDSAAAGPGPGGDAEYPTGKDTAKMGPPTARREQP

[3] = biological target: Dual specificity protein kinase CLK2 (Homo sapiens) (UniProt P49760); assay: Inhibition of CLK2 (unknown origin) assessed as residual activity at 100 nM by KINOMEscan analysis relative to control
Dual specificity protein kinase CLK2 (Homo sapiens), sequence (P49760 whole entry, looked up): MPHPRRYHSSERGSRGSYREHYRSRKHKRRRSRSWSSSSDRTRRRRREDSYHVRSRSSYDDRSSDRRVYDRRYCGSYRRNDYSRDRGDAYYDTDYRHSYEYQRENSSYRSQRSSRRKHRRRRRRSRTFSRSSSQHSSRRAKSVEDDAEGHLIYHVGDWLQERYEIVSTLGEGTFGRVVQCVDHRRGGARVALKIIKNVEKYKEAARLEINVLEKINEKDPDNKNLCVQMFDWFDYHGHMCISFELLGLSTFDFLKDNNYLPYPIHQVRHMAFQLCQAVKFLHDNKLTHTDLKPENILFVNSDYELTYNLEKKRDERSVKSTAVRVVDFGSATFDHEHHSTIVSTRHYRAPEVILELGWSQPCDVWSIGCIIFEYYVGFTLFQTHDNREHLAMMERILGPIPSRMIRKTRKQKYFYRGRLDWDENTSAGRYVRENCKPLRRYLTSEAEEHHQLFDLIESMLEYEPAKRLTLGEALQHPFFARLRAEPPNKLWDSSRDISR

[4] = biological target: T2, Inhibitor of nuclear factor kappa-B kinase subunit beta (Homo sapiens) (UniProt O14920); assay: Inhibition of IKK-beta (unknown origin) assessed as residual activity at 100 nM by KINOMEscan analysis relative to control
T2 sequence (whole entry): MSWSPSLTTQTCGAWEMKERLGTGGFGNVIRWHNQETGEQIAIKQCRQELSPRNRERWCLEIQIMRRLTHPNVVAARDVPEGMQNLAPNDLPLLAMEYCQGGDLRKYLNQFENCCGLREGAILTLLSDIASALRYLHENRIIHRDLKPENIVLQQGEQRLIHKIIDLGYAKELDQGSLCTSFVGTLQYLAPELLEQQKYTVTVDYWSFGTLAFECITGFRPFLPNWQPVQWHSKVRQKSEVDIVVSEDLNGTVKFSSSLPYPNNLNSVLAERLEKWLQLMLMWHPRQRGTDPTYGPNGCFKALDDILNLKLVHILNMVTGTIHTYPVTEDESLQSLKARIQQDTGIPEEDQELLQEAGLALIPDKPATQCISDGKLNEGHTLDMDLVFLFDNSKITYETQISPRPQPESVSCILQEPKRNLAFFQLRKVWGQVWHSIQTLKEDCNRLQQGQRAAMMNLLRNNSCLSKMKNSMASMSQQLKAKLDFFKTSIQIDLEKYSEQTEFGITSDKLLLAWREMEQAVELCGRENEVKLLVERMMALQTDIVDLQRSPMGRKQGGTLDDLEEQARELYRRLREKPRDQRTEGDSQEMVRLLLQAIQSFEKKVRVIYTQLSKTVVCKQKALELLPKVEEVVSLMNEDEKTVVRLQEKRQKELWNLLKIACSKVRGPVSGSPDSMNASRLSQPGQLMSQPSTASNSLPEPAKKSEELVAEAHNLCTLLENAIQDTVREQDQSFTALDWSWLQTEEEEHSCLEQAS

[5] = biological target: Calcium/calmodulin-dependent protein kinase type II subunit alpha (Homo sapiens) (UniProt Q9UQM7); assay: Inhibition of CAMK2A (unknown origin) assessed as residual activity at 100 nM by KINOMEscan analysis relative to control
Calcium/calmodulin-dependent protein kinase type II subunit alpha (Homo sapiens), sequence (Q9UQM7 whole entry): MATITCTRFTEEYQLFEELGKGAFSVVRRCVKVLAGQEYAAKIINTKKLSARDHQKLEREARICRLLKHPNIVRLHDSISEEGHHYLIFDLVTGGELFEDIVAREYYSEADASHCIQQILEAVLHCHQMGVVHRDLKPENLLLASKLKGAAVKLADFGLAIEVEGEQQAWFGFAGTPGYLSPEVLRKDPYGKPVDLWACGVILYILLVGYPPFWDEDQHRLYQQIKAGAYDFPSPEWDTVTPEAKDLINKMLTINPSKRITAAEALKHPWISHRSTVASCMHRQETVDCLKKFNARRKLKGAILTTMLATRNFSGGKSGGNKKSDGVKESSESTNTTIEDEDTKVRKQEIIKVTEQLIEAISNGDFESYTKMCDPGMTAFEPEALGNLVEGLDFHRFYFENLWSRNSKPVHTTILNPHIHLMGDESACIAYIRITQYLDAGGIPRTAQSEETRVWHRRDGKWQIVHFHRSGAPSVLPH

[6] = biological target: Ribosomal protein S6 kinase beta-1 (Homo sapiens) (UniProt P23443); assay: Inhibition of S6K1 (unknown origin) assessed as residual activity at 100 nM by KINOMEscan analysis relative to control
Ribosomal protein S6 kinase beta-1 (Homo sapiens), sequence (P23443 whole entry, looked up): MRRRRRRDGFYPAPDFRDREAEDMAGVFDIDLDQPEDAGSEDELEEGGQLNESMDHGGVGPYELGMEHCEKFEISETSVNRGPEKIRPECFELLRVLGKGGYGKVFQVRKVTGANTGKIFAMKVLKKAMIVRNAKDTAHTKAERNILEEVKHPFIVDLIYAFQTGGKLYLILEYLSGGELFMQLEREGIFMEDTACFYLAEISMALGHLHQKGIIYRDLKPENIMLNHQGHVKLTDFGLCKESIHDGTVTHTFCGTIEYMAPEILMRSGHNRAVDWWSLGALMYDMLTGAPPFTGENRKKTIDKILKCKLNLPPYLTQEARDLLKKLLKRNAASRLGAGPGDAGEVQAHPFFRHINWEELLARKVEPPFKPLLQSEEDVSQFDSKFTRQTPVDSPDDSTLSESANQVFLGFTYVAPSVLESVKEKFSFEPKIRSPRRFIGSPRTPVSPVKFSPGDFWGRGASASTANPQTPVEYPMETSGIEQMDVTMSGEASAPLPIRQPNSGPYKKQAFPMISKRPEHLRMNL

[7] = biological target: Fibroblast growth factor receptor 1 (Homo sapiens) (UniProt P11362); assay: Inhibition of FGFR1 (unknown origin) assessed as residual activity at 100 nM by KINOMEscan analysis relative to control
Fibroblast growth factor receptor 1 (Homo sapiens), sequence (P11362 22-822 limits assumed): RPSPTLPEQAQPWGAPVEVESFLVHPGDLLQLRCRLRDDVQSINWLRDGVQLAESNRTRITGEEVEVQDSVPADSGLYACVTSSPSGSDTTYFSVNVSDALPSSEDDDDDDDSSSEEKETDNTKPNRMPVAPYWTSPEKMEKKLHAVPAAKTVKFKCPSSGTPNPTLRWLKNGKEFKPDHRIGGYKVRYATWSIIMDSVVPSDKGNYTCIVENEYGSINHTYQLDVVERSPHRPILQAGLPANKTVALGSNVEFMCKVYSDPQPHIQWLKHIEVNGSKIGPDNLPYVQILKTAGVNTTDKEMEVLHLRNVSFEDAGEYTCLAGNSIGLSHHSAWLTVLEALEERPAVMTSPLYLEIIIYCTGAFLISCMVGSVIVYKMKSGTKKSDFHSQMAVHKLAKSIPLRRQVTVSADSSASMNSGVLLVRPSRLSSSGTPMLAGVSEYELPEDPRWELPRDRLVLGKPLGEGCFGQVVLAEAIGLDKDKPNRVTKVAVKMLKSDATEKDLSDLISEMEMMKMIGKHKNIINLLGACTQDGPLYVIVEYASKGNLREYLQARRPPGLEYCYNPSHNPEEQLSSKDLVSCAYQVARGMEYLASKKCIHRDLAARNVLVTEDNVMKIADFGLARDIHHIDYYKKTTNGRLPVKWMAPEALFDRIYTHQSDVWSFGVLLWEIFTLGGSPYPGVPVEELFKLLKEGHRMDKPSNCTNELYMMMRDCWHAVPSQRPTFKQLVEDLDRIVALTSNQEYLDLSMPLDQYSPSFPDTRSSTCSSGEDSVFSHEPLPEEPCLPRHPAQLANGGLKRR

[8] = biological target: Eukaryotic translation initiation factor 2-alpha kinase 1 (Homo sapiens) (UniProt Q9BQI3); assay: Inhibition of EIF2AK1 (unknown origin) assessed as residual activity at 100 nM by KINOMEscan analysis relative to control
Eukaryotic translation initiation factor 2-alpha kinase 1 (Homo sapiens), sequence (Q9BQI3 whole entry): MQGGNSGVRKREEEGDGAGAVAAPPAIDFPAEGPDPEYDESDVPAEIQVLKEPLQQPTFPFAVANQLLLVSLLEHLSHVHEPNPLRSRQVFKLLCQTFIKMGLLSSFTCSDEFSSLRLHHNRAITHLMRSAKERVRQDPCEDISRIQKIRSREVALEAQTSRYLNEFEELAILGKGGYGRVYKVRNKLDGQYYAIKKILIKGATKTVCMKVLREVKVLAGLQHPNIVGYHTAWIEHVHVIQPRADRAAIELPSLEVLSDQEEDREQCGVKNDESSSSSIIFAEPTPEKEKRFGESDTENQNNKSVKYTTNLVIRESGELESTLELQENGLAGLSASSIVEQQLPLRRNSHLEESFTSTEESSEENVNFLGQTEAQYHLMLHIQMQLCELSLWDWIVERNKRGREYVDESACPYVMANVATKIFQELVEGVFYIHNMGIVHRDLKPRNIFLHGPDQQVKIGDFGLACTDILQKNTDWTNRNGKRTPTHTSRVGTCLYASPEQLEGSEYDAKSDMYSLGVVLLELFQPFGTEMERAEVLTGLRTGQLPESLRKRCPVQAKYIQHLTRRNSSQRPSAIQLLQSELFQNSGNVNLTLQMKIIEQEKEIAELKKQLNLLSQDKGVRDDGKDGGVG

[9] = biological target: T3, SNF-related serine/threonine-protein kinase (Homo sapiens) (UniProt Q9NRH2); assay: Inhibition of SNRK (unknown origin) assessed as residual activity at 100 nM by KINOMEscan analysis relative to control
T3 sequence (whole entry): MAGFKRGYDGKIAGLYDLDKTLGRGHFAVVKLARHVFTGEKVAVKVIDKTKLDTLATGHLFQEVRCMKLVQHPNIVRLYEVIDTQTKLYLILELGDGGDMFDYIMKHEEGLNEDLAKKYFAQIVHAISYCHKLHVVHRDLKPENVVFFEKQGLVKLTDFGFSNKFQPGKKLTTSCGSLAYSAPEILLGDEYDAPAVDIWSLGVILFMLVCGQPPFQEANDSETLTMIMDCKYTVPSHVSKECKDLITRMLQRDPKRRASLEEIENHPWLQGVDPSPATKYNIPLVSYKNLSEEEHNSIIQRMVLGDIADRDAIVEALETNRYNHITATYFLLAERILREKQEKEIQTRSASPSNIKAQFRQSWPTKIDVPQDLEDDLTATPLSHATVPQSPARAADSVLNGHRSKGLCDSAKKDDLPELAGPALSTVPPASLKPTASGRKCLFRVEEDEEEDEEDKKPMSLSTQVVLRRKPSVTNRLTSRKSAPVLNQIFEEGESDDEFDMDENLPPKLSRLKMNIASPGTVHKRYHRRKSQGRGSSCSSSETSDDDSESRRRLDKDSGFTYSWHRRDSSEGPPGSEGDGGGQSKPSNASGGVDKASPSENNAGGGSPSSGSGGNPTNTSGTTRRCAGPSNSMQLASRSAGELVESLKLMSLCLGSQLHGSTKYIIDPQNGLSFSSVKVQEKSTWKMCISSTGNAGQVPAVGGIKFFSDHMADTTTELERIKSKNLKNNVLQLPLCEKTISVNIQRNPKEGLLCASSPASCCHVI

[10] = tested on: Epidermal growth factor receptor (Homo sapiens), P00533 [UNDEFINED MUTATION]; assay: Inhibition of EGFR L747-T751del/Sins mutant (unknown origin) assessed as residual activity at 100 nM by KINOMEscan analysis relative to control
Epidermal growth factor receptor (Homo sapiens), P00533 [UNDEFINED MUTATION], sequence (P00533 whole entry, looked up, stated change not applied): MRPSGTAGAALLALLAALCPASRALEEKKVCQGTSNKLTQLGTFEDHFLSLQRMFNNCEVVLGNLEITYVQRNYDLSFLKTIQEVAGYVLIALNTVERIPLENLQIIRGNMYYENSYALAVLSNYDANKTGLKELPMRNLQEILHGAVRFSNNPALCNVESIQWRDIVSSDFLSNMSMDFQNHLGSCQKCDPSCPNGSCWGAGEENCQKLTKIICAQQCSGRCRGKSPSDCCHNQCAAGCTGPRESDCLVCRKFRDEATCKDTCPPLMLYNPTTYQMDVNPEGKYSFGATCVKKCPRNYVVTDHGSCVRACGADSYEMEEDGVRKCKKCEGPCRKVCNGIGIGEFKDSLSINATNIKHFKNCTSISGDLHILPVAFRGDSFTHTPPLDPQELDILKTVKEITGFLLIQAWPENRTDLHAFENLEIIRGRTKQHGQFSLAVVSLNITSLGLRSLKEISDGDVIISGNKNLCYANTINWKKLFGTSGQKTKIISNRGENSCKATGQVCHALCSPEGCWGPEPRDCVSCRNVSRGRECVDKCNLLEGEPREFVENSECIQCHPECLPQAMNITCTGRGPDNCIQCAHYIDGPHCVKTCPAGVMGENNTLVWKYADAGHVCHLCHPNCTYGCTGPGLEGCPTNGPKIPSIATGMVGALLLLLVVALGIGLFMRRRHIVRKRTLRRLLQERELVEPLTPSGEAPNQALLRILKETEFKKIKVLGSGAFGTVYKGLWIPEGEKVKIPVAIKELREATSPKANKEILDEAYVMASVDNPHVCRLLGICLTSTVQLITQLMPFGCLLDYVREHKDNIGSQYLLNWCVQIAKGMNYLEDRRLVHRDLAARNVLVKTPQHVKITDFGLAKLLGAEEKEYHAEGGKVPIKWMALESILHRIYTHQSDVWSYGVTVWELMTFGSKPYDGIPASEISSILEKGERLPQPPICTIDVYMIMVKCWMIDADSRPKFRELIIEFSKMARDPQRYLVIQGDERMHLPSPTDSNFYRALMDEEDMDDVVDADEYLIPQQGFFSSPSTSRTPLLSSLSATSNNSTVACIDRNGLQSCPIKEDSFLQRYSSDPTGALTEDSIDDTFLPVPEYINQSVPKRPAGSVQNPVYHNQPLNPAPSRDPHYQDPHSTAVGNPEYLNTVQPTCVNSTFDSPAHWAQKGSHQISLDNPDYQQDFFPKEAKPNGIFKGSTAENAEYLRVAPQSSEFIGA

Serine/threonine-protein kinase 32C (Homo sapiens), sequence (Q86UX6 whole entry): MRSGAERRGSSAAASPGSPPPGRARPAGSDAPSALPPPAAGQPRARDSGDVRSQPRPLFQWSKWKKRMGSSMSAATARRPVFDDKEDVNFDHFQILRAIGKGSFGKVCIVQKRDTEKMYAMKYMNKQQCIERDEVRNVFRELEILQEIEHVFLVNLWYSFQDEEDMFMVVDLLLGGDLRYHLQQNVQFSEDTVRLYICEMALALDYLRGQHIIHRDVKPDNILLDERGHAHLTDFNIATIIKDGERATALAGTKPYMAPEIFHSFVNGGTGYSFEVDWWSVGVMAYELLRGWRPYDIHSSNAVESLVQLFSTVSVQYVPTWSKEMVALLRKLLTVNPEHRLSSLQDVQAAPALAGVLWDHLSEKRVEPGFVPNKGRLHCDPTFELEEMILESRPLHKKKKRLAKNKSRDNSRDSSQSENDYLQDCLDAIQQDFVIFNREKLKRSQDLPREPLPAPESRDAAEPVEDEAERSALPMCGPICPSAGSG

**Q.** What does the source list for `COc1cc2ncnc(N[C@H](C)c3cccc4ccccc34)c2cc1OC`?
**A.** Activity [1]: 100%; Activity [2]: 100%; Activity [3]: 100%; Activity [4]: 84%; Activity [5]: 96%; Activity [6]: 77%; Activity [7]: 100%; Activity [8]: 67%; Activity [9]: 74%; Activity [10]: 80%
